Source: patent US12185723B2, “Herbicidally active 3-phenylisoxazoline-5-carboxamides of s-containing cyclopentenylcarboxylic esters” (Bayer Aktiengesellschaft, priority 2019, dated 2025)

Columns and labels:
Type in all cases: in vivo
Veronica persica = assay: Post-emergence herbicidal action against VERPE
In short: (§1)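 Visual % activity versus untreated controls, scored about 3 weeks after spraying (0% = like control, 100% = dead). Plants grown in sandy loam in a greenhouse were treated at the one-leaf stage, 2 to 3 weeks post-sowing, with WP or EC formulations plus 0.5% additive at 600 l/ha.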

Echinochloa crus-galli = assay: Post-emergence herbicidal action against ECHCG; settings: visual rating about 3 weeks after treatment
In short: as §1

Viola tricolor = assay: Post-emergence herbicidal action against VIOTR
Procedure: (§2) Post-Emergence Herbicidal Action Against Harmful Plants and Crop Plant Compatibility Seeds of monocotyledonous and dicotyledonous weeds and crop plants are placed in sandy loam in plastic or wood-fibre pots, covered with soil and cultivated in a greenhouse under controlled growth conditions. 2 to 3 weeks after sowing, the test plants are treated at the one-leaf stage. The compounds of the invention, formulated in the form of wettable powders (WP) or as emulsion concentrates (EC), are then sprayed onto the green parts of the plants as aqueous suspension or emulsion with addition of 0.5% additive at a water application rate of 600 l/ha (converted). After the test plants have been kept in the greenhouse under optimum growth conditions for about 3 weeks, the activity of the preparations is rated visually in comparison to untreated controls. For example, 100% activity=the plants have died, 0% activity=like control plants. [table]

Stellaria media = assay: Post-emergence herbicidal action against STEME
Procedure: as §2

Amaranthus retroflexus = assay: Post-emergence herbicidal action against AMARE
In short: as §1

Lolium rigidum = assay: Post-emergence herbicidal action against LOLRI; settings: visual rating about 3 weeks after treatment
In short: as §1

DIGSA = assay: Post-emergence herbicidal action against DIGSA; settings: visual rating about 3 weeks after treatment
In short: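 Greenhouse-grown plants sprayed at one-leaf stage (2–3 weeks after sowing) with WP or EC formulations as aqueous suspension/emulsion plus 0.5% additive, 600 l/ha water. Activity rated visually about 3 weeks later versus untreated controls, 100% = plants dead, 0% = like controls.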

Pharbitis purpurea = assay: Post-emergence herbicidal action against PHBPU
In short: as §1

Alopecurus myosuroides = assay: Post-emergence herbicidal action against ALOMY; settings: visual rating about 3 weeks after treatment
In short: as §1

Polygonum convolvulus = assay: Post-emergence herbicidal action against POLCO
In short: as §1

Avena fatua = assay: Post-emergence herbicidal action against AVEFA; settings: visual rating about 3 weeks after treatment
In short: as §1

Hordeum murinum = assay: Post-emergence herbicidal action against HORMU
Procedure: as §2

Setaria viridis = assay: Post-emergence herbicidal action against SETVI; settings: visual rating about 3 weeks after treatment
In short: as §1

Abutilon theophrasti = assay: Post-emergence herbicidal action against ABUTH; settings: visual rating about 3 weeks after treatment
In short: as §1

Matricaria inodora = assay: Post-emergence herbicidal action against MATIN; settings: 20 g a.i./ha
Procedure: as §2

[1] = 80 g a.i./ha, visual rating about 3 weeks after treatment

SMILES	Herbicidal action against [%] VERPE (Veronica persica; 20 g a.i./ha)	Herbicidal action against [%] VERPE (Veronica persica; 80 g a.i./ha)	Herbicidal action against [%] ECHCG (Echinochloa crus-galli; 80 g a.i./ha)	Herbicidal action against [%] VIOTR (Viola tricolor; 20 g a.i./ha)	Herbicidal action against [%] STEME (Stellaria media; 20 g a.i./ha)	Herbicidal action against [%] STEME (Stellaria media; 80 g a.i./ha)	Herbicidal action against [%] LOLRI (Lolium rigidum; 20 g a.i./ha)	Herbicidal action against [%] LOLRI (Lolium rigidum; 80 g a.i./ha)	Herbicidal action against [%] DIGSA (DIGSA; 20 g a.i./ha)	Herbicidal action against [%] DIGSA (DIGSA; 80 g a.i./ha)	Herbicidal action against [%] ALOMY (Alopecurus myosuroides; 20 g a.i./ha)	Herbicidal action against [%] ALOMY (Alopecurus myosuroides; 80 g a.i./ha)	Herbicidal action against [%] POLCO (Polygonum convolvulus; 20 g a.i./ha)	Herbicidal action against [%] AVEFA (Avena fatua; 20 g a.i./ha)	Herbicidal action against [%] AVEFA (Avena fatua; 80 g a.i./ha)	Herbicidal action against [%] HORMU (Hordeum murinum; 80 g a.i./ha)	Herbicidal action against [%] SETVI (Setaria viridis; 20 g a.i./ha)	Herbicidal action against [%] ECHCG (Echinochloa crus-galli; 20 g a.i./ha)	Herbicidal action against [%] ABUTH (Abutilon theophrasti; 20 g a.i./ha)	Herbicidal action against [%] AMARE (Amaranthus retroflexus; 20 g a.i./ha)	also measured
CSCCOC(=O)C1C=CC(NC(=O)C2(C)CC(c3cc(C#N)cc(C#N)c3)=NO2)C1 (mixture of isomers) [Example I-46]	80%	90%	80%	90%	90%	90%	90%	90%	90%	90%	90%	90%	80%	90%	90%	90%	90%	–	–	–	Herbicidal action against [%] VIOTR (Viola tricolor; 80 g a.i./ha): 80%; Herbicidal action against [%] AMARE (Amaranthus retroflexus; [1]): 90%; Herbicidal action against [%] PHBPU (Pharbitis purpurea; 80 g a.i./ha): 80%; Herbicidal action against [%] POLCO (Polygonum convolvulus; 80 g a.i./ha): 90%; Herbicidal action against [%] HORMU (Hordeum murinum; 20 g a.i./ha): 90%; Herbicidal action against [%] SETVI (Setaria viridis; 80 g a.i./ha): 90%
CSCCOC(=O)C1C=CC(NC(=O)C2(C)CC(c3cccc(C#N)c3)=NO2)C1 (stereo not drawn) [Example I-40]	80%	80%	80%	80%	80%	80%	80%	80%	–	80%	–	80%	–	–	–	–	–	80%	80%	–	Herbicidal action against [%] ABUTH (Abutilon theophrasti; 80 g a.i./ha): 80%
CSCCOC(=O)C1C=CC(NC(=O)C2(C(F)(F)F)CC(c3cc(F)cc(C#N)c3)=NO2)C1 (mixture of isomers) [Example I-37]	80%	90%	80%	80%	80%	80%	90%	90%	80%	90%	90%	90%	80%	90%	90%	80%	80%	–	–	80%	Herbicidal action against [%] AMARE (Amaranthus retroflexus; [1]): 80%; Herbicidal action against [%] PHBPU (Pharbitis purpurea; 80 g a.i./ha): 80%; Herbicidal action against [%] POLCO (Polygonum convolvulus; 80 g a.i./ha): 80%; Herbicidal action against [%] HORMU (Hordeum murinum; 20 g a.i./ha): 80%; Herbicidal action against [%] SETVI (Setaria viridis; 80 g a.i./ha): 80%
COC(=O)CSCCOC(=O)C1C=CC(NC(=O)C2(C)CC(c3cc(F)cc(F)c3)=NO2)C1 (stereo not drawn) [Example I-64]	80%	–	–	–	–	–	90%	–	90%	–	90%	–	80%	90%	–	–	80%	90%	80%	90%	Herbicidal action against [%] MATIN (Matricaria inodora): 90%; Herbicidal action against [%] PHBPU (Pharbitis purpurea; 20 g a.i./ha): 80%
CSCCOC(=O)C1C=CC(NC(=O)C2(C3CC3)CC(c3cc(F)cc(F)c3)=NO2)C1 (stereo not drawn) [Example I-30]	80%	90%	–	–	–	–	90%	90%	80%	90%	–	90%	–	90%	90%	90%	–	–	–	–	Herbicidal action against [%] VIOTR (Viola tricolor; 80 g a.i./ha): 80%; Herbicidal action against [%] AMARE (Amaranthus retroflexus; [1]): 80%; Herbicidal action against [%] POLCO (Polygonum convolvulus; 80 g a.i./ha): 80%; Herbicidal action against [%] HORMU (Hordeum murinum; 20 g a.i./ha): 90%; Herbicidal action against [%] SETVI (Setaria viridis; 80 g a.i./ha): 80%
CCSCCOC(=O)C1C=CC(NC(=O)C2(C)CC(c3cc(F)cc(F)c3)=NO2)C1 (stereo not drawn) [Example I-02]	90%	–	–	–	–	–	90%	–	90%	–	100%	–	90%	90%	–	–	90%	90%	90%	90%	Herbicidal action against [%] MATIN (Matricaria inodora): 80%; Herbicidal action against [%] PHBPU (Pharbitis purpurea; 20 g a.i./ha): 80%
C=CC1(C(=O)NC2C=CC(C(=O)OCCSC)C2)CC(c2ccccc2)=NO1 (mixture of isomers) [Example I-48]	80%	90%	80%	90%	90%	90%	80%	90%	80%	90%	–	100%	–	–	90%	80%	80%	–	–	–	Herbicidal action against [%] PHBPU (Pharbitis purpurea; 80 g a.i./ha): 80%; Herbicidal action against [%] SETVI (Setaria viridis; 80 g a.i./ha): 80%
CC(C)CSCCOC(=O)C1C=CC(NC(=O)C2(C)CC(c3cc(F)cc(F)c3)=NO2)C1 (stereo not drawn) [Example I-08]	80%	–	–	–	–	–	90%	–	90%	–	100%	–	90%	90%	–	–	90%	90%	90%	90%	Herbicidal action against [%] MATIN (Matricaria inodora): 80%; Herbicidal action against [%] PHBPU (Pharbitis purpurea; 20 g a.i./ha): 90%
COC1(C(=O)NC2C=CC(C(=O)OCCSC)C2)CC(c2cc(F)cc(F)c2)=NO1 (stereo not drawn) [Example I-19]	90%	–	–	–	–	–	90%	–	90%	–	80%	–	80%	90%	–	–	90%	90%	80%	80%	Herbicidal action against [%] MATIN (Matricaria inodora): 80%; Herbicidal action against [%] PHBPU (Pharbitis purpurea; 20 g a.i./ha): 80%
